Usually IC50 stands for the concentration at which inhibition is half-maximal.

For the test, the target named is T1, PI3Kγ (Homo sapiens, UniProt P48736).
T1 construct: HA; made in house; host or cells: Spodoptera frugiperda (Sf9) cells, baculovirus co-infection
T1 sequence (P48736 whole entry, species assumed): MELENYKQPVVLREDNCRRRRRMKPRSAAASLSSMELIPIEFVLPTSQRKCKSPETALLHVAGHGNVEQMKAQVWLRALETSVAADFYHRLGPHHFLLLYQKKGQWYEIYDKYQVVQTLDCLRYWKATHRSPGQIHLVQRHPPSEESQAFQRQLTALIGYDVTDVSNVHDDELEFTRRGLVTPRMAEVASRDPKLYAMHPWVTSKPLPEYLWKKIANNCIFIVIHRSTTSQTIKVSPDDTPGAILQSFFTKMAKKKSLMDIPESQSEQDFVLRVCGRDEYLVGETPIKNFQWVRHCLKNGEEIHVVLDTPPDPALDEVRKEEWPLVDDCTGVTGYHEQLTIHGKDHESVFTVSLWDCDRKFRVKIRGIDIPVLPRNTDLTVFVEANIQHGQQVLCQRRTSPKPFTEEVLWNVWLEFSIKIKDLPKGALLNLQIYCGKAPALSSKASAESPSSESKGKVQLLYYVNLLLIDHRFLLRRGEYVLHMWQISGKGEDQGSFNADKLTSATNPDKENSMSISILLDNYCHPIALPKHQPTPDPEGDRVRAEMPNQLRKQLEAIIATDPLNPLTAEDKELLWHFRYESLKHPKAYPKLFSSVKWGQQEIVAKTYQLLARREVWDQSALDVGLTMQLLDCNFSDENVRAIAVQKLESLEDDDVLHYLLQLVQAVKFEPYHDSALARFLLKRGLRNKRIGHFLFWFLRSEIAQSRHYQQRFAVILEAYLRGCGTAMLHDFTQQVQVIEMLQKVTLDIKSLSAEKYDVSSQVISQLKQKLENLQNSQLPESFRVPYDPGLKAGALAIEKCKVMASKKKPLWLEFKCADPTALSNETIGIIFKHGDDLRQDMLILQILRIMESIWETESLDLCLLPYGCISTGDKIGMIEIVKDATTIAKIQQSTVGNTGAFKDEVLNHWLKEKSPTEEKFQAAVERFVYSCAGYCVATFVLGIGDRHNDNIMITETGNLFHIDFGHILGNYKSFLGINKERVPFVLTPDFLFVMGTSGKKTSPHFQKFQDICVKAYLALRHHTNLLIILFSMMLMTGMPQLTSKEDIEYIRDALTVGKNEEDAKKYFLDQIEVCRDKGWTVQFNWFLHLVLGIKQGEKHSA
T1 sequence (Q8WYR1 whole entry partner, species assumed): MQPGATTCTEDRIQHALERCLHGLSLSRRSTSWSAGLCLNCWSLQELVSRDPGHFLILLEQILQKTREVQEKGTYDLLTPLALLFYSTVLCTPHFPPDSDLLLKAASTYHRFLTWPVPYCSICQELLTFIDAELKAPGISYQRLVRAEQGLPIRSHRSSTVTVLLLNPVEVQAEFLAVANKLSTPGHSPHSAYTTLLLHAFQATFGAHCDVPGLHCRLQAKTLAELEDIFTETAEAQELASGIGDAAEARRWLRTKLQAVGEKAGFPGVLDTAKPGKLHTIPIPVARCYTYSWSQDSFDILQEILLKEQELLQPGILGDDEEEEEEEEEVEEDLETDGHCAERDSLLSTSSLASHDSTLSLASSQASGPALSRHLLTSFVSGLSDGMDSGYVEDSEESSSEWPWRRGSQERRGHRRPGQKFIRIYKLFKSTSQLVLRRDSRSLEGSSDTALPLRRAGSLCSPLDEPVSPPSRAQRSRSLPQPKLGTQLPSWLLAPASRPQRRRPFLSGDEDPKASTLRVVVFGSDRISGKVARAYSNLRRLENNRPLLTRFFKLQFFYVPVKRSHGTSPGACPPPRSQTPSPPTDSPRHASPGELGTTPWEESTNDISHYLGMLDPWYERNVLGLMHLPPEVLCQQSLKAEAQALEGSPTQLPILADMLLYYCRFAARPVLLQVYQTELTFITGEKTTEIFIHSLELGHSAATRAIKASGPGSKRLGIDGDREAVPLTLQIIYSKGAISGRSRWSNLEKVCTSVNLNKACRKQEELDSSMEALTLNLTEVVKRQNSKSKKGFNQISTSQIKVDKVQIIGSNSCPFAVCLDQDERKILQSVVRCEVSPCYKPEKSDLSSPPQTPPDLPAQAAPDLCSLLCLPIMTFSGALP
The test is described as follows: PI3Kγ In Vitro Kinase Assay. Particulars: purified recombinant p101/p110 γ protein with G protein β1/γ2 subunits; 20 μM ATP, 25 μM PIP2; 20 minutes at room temperature; radioactive PIP3 readout. It is filed as biochemical. As to the method:
Spodtera frugiperda cells, grown in ESF921 media, were coinfected with baculovirus expressing a glu-tagged p101 and baculovirus expressing an HA-tagged p110γ, at a 3:1 ratio of p101 baculovirus to p110γ baculovirus. Sf9 cells were grown to 1×10^7 total cells/mL in 10 L bioreactors and harvested 48-72 hours post infection. Samples of infected cells were then tested for expression of p101/p110 γ PI3 kinase by immunoprecipitation and Western Blot analysis methods (see below). To purify PI3Kγ, 4 volumes of room temperature hypotonic lysis buffer (1 mM MgCl2, 1 mM DTT, 5 mM EGTA, 1 mM Pefabloc, 0.5 μM aprotinin, 5 μM leupeptin, 2 μM pepstatin, 5 μM E64, pH 8) per gram of cell paste, was poured onto frozen cell pellets with stirring, then lysed in a nitrogen “bomb” at 400 psi (599HC […], Parr Instrument Co, Moline, Ill.). NaCl was added to 150 mM, and sodium cholate was added to 1% and mixed for another 45 minutes. The lysates were clarified by centrifugation for 25 minutes at 14,000 rpm. The lysates were then loaded over anti-glu-linked Protein-G Sepaharose beads (Covance Research Products, Richmond, Calif.) using 20 mL resin/50 g cell paste. The column was washed with 15 volumes of wash buffer (1 mM DTT, 0.2 mM EGTA, 1 mM Pefabloc, 0.5 μM aprotinin, 5 μM leupeptin, 2 μM pepstatin, 5 μM E64, 150 mM NaCl, 1% sodium cholate, pH 8). PI3Kγ was eluted with 6 column volumes of wash buffer that contain 100 μg/mL of a peptide that competes for binding of the glu tag. The column fractions with the eluted protein (determined by taking OD280 readings) were collected and dialyzed in 0.2 mM EGTA, 1 mM DTT, 1 mM Pefabloc, 5 μM leupeptin, 0.5% sodium cholate, 150 mM NaCl, and 50% glycerol, pH 8. The fractions were stored at -80° C. until further use. Spodtera frugiperda cells were coinfected with baculovirus expressing a glu-tagged G protein β1 and baculovirus expressing a G protein β2, at a 1:1 ratio of glu-tagged G protein β1 baculovirus to G protein β2 baculovirus. Sf9 cells are grown in 10 L bioreactors and harvested 48-72 hours post infection. Samples of infected cells were tested for G protein β1/β2 expression by Western Blot analysis, as described below. Cell lysates were homogenized and loaded onto a column of glu-tagged beads as in Biological Example 1 and competed off the column with a glu peptide and processed as described in Biological Example 1. The inhibitory properties of the compounds in Table 1 were assayed in an in vitro PI3K assay. In a 96-well polypropylene plate, each well was spotted with 2 μL of 50 times the desired final concentration of compound in DMSO. Purified recombinant p101/p110 γ protein (0.03 μg; 2.7 nM) and G protein β1/γ2 subunits (0.09 μg; 57.7 nM) for each reaction was combined in the assay buffer (30 mM HEPES, 100 mM NaCl, 1 mM EGTA, and 1 mM DTT). ATP and [γ-^32P-ATP] (0.09 μCi) were added to this mixture so that the final ATP concentration in the reaction was 20 μM. Lipid micelles were formed by sonicating phosphatidylinositol-4,5-diphosphate (PIP2), phosphatidylethanolamine (PE), and Na-cholate in the assay buffer for 10 minutes, adding MgCl2 and incubating on ice for 20 minutes, for final concentrations of 25 μM PIP2, 300 μM PE, 0.02% Na-cholate, and 10 mM MgCl2 in the reaction. The reactions were started by adding equal volumes lipid and enzyme mixture in a total volume of 50 μL, allowed to run for 20 minutes at room temperature, and stopped with 100 μL 75 mM H3PO4. The lipid product was transferred to a glass fiber filter plate and washed with 75 mM H3PO4 several times. The presence of radioactive lipid product (PIP3) was measured by adding Wallac Optiphase mix to each well and counting in a Wallac 1450 Trilux plate reader (PerkinElmer Life Sciences Inc., Boston, Mass. 02118). The IC50 for each compound tested is reported in μM in Table 1: […]
Regarding `COc1cc2sc(C(=O)Nc3nn[nH]n3)c(OC3CCCCC3)c2cc1C` [Example 51, 3-Cyclohexyloxy-6-methoxy-5-methyl-benzo[b]thiophene-2-carboxylic acid (2H-tetrazol-5-yl)-amide], the IC50 came out at 0.02 µM.

As for `COc1cc2sc(C(=O)Nc3nnn[nH]3)c(OC3CCC(C)C(C)C3)c2cc1OC` (centres unmarked) [Example 45, 3-(3,4-Dimethyl-cyclohexyloxy)-5,6-dimethoxy-benzo[b]thiophene-2-carboxylic acid (1H-tetrazol-5-yl)-amide], the IC50 came to 0.052 µM.

As to `COc1cc2c(OC3CC(C)CC(C)(C)C3)c(C(=O)Nc3nn[nH]n3)sc2cc1C` (centres unmarked) [Example 4, 5-Methoxy-6-methyl-3-(3,3,5-trimethyl-cyclohexyloxy)-benzo[b]thiophene-2-carboxylic acid (2H-tetrazol-5-yl)-amide], the IC50 worked out at 0.009 µM.

As for `COc1cc2c(OC3CCCNC3)c(C(=O)Nc3nn[nH]n3)sc2cc1C` (centres unmarked) [Example 10], the IC50 was found to be 1.29 µM.

`COc1cc2sc(C(=O)Nc3nnn[nH]3)c(OCC3C4CCC(C4)C3C)c2cc1OC` (centres unmarked) [Example 29, 5,6 Dimethoxy-3-(3-methyl-bicyclo[2.2.1]hept-2-ylmethoxy)-benzo[b]thiophene-2-carboxylic acid (1H-tetrazol-5-yl)-amide]: the IC50 stood at 0.014 µM.

In the case of “3-Cycloheptylmethoxy-5,6-dimethoxy-benzo[b]thiophene-2-carboxylic acid (1H-tetrazol-5-yl)-amide [Example 42]”, the IC50 was found to be 0.036 µM.

On to `COc1cc2sc(C(=O)Nc3nnn[nH]3)c(OC3CCOC3)c2cc1OC` (centres unmarked) [Example 27, 5,6-Dimethoxy-3-(tetrahydro-furan-3-yloxy)-benzo[b]thiophene-2-carboxylic acid (1H-tetrazol-5-yl)-amide], for which the IC50 stood at 0.575 µM.

In the case of `COc1cc2c(OC3CCNCC3)c(C(=O)Nc3nn[nH]n3)sc2cc1C` [Example 12, 5-Methoxy-6-methyl-3-(piperidiny-4yloxy)-benzo[b]thiophene-2-carboxylic acid (2H-tetrazol-5-yl)amide], the IC50 came to 0.715 µM.

With `COc1cc2c(OC3CCCC(C)(C)C3)c(C(=O)Nc3nn[nH]n3)sc2cc1C` (centres unmarked) [Example 5, 3-(3,3-Dimethyl-cyclohexyloxy)-5-methoxy-6-methyl-benzo[b]thiophene-2-carboxylic acid (2H-tetrazol-5-yl)-amide], the IC50 is 0.008 µM.

In the case of `COc1cc2sc(C(=O)Nc3nnn[nH]3)c(OCC3(C)CC3)c2cc1OC` [Example 37, 5,6-Dimethoxy-3-(1-methyl-cyclopropylmethoxy)-benzo[b]thiophene-2-carboxylic acid (1H-tetrazol-5-yl)-amide], the half-inhibitory concentration (IC50) was determined as 0.051 µM.

With `COc1cc2sc(C(=O)Nc3nnn[nH]3)c(OC3CCC3)c2cc1OC` [Example 40, 3-Cyclobutoxy-5,6-dimethoxy-benzo[b]thiophene-2-carboxylic acid (1H-tetrazol-5-yl)-amide], the IC50 stood at 0.092 µM.

For `COc1cc2c(OC3CCOCC3)c(C(=O)Nc3nn[nH]n3)sc2cc1C` [Example 1, 5-Methoxy-6-methyl-3-(tetrahydro-pyran-4-yloxy)-benzo[b]thiophene-2-carboxylic acid (2H-tetrazol-5-yl)-amide], the IC50 was found to be 0.024 µM.

`COc1cc2c(OC3CCN(C(C)=O)CC3)c(C(=O)Nc3nn[nH]n3)sc2cc1C` [Example 16, 3-(1-Acetyl-piperidin-4-yloxy)-5-methoxy-6-methyl-benzo[b]thiophene-2-carboxylic acid (2H-tetrazol-5-yl)-amide]: the IC50 turned out to be 0.025 µM.

Consider `COc1cc2sc(C(=O)Nc3nnn[nH]3)c(OC3CCCCCC3)c2cc1OC` [Example 39, 3-Cycloheptyloxy-5,6-dimethoxy-benzo[b]thiophene-2-carboxylic acid (1H-tetrazol-5-yl)-amide], for which the 50% inhibitory concentration (IC50) was 0.037 µM.

For the compound `COc1cc2c(OC3CCCCC3)c(C(=O)Nc3nn[nH]n3)sc2cc1C` [Example 6, 3-Cyclohexyloxy-5-methoxy-6-methyl-benzo[b]thiophene-2-carboxylic acid (2H-tetrazol-5-yl)-amide], the IC50 was 0.007 µM.

For the compound `CCC(Oc1c(C(=O)Nc2nnn[nH]2)sc2cc(OC)c(OC)cc12)C1CCCCC1` (centres unmarked) [Example 44, 3-(1-Cyclohexyl-propoxy)-5,6-dimethoxy-benzo[b]thiophene-2-carboxylic acid (1H-tetrazol-5-yl)-amide], the IC50 was 0.16 µM.

For `COc1cc2sc(C(=O)Nc3nnn[nH]3)c(OCC3CCCCC3)c2cc1OC` [Example 21, 3-Cyclohexylmethoxy-5,6-dimethoxy-benzo[b]thiophene-2-carboxylic acid (1H-tetrazol-5-yl)-amide], the IC50 stood at 0.195 µM.

Turning to `COc1cc2c(OC3CCCC(C)C3)c(C(=O)Nc3nn[nH]n3)sc2cc1C` (single isomer, unassigned) [Example 2, 5-Methoxy-6-methyl-3-(3-methyl-cyclohexyloxy)-benzo[b]thiophene-2-carboxylic acid (2H-tetrazol-5-yl)-amide], the half-maximal inhibitory concentration (IC50) was 0.024 µM.

With `COc1cc2c(OC3CCN(C4CCCCC4)CC3)c(C(=O)Nc3nn[nH]n3)sc2cc1C` [Example 11, 3-(1-Cyclohexyl-piperdin-4-yloxy)-5-methoxy-6-methyl-benzo[b]thiophene-2-carboxylic acid (2H-tetrazol-5-yl-amide)], the IC50 came to 0.965 µM.

Regarding `COc1cc2sc(C(=O)Nc3nnn[nH]3)c(OC3CCOCC3)c2cc1OC` [Example 41, 5,6-Dimethoxy-3-(tetrahydro-pyran-4-yloxy)-benzo[b]thiophene-2-carboxylic acid (1H-tetrazol-5-yl)-amide], the IC50 is 0.083 µM.

As to `COc1cc2sc(C(=O)Nc3nnn[nH]3)c(OCC3CCC3)c2cc1OC` [Example 38, 3-Cyclobutylmethoxy-5,6-dimethoxy-benzo[b]thiophene-2-carboxylic acid (1H-tetrazol-5-yl)-amide], the half-maximal inhibitory concentration (IC50) is 0.072 µM.

Turning to `COc1cc2sc(C(=O)Nc3nnn[nH]3)c(OCC3CCCC3)c2cc1OC` [Example 43, 3-Cyclopentylmethoxy-5,6-dimethoxy-benzo[b]thiophene-2-carboxylic acid (1H-tetrazol-5-yl)-amide], the IC50 stood at 0.101 µM.

Regarding `CCC1(COc2c(C(=O)Nc3nnn[nH]3)sc3cc(OC)c(OC)cc23)COC1` [Example 28, 3-(3-Ethyl-oxetan-3-ylmethoxy)-5,6dimethoxy-benzo[b]thiophene-2-carboxylic acid (1H-tetrazol-5-yl)-amide], the IC50 turned out to be 0.245 µM.

With `COc1cc2c(OC3CCCCCC3)c(C(=O)Nc3nn[nH]n3)sc2cc1C` [Example 8, 3-Cycloheptyloxy-5-methoxy-6-methyl-benzo[b]thiophene-2-carboxylic acid (2H-tetrazol-5-yl)-amide], the IC50 turned out to be 0.005 µM.

For the compound `COc1cc2sc(C(=O)Nc3nnn[nH]3)c(OCCC3CC3)c2cc1OC` [Example 19, 3-(2-Cyclopropyl-ethoxy)-5,6-dimethoxy-benzo[b]thiophene-2-carboxylic acid (1H-tetrazol-5-yl)-amide], the IC50 stood at 0.371 µM.

For the compound `COc1cc2c(OC3CCN(C(=O)OC(C)(C)C)CC3)c(C(=O)Nc3nn[nH]n3)sc2cc1C` [Example 17, 4-[5-Methoxy-6-methyl-2-(2H-tetrazol-5-ylcarbamoyl)-benzo[b]thiophene-3-yloxy]-piperidine-1-carboxylic acid tert-butyl ester], the IC50 was 0.024 µM.

The values are drawn from patent US20050020630A1, “Cycloalkyl and heterocycloalkyl substituted benzothiophenes as therapeutic agents” (priority 2003, published 2005).
